Results as given in PubChem BioAssay AID1963842 (Molecular Pharmacology Branch, DTP, NCI, 2024).

System: 677734-321-R-J1-PDC complex spheroid viability
Assay: Anticancer human tumor 677734-321-R-J1-PDC patient-derived soft tissue sarcoma cell line growth inhibition [POLQ]
Conditions: for IC50: curve of first compound; for viability, T/C: stronger effect = lower value
Outline: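 Three-cell-type spheroids modelling solid tumor plus stroma served as the readout system; POL inhibitors were tested individually and in combination, concentration ranges set by clinical Cmax where known.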

[1] = second compound 0.0316 µM, first compound 0.0316 µM
[2] = second compound 0.0316 µM, first compound 0.1 µM
[3] = second compound 0.0316 µM, first compound 0.316 µM
[4] = second compound 0.0316 µM, first compound 1 µM
[5] = second compound 0.0316 µM, first compound 3.16 µM
[6] = second compound 0.0316 µM, first compound 10 µM
[7] = second compound 0.1 µM, first compound 0.0316 µM
[8] = second compound 0.1 µM, first compound 0.1 µM
[9] = second compound 0.1 µM, first compound 0.316 µM
[10] = second compound 0.1 µM, first compound 1 µM
[11] = second compound 0.1 µM, first compound 3.16 µM
[12] = second compound 0.1 µM, first compound 10 µM
[13] = second compound 0.316 µM, first compound 0.0316 µM
[14] = second compound 0.316 µM, first compound 0.1 µM
[15] = second compound 0.316 µM, first compound 0.316 µM
[16] = second compound 0.316 µM, first compound 1 µM
[17] = second compound 0.316 µM, first compound 3.16 µM
[18] = second compound 0.316 µM, first compound 10 µM
[19] = second compound 1 µM, first compound 0.0316 µM
[20] = second compound 1 µM, first compound 0.1 µM
[21] = second compound 1 µM, first compound 0.316 µM
[22] = second compound 1 µM, first compound 1 µM
[23] = second compound 1 µM, first compound 3.16 µM
[24] = second compound 1 µM, first compound 10 µM
[25] = second compound 3.16 µM, first compound 0.0316 µM
[26] = second compound 3.16 µM, first compound 0.1 µM
[27] = second compound 3.16 µM, first compound 0.316 µM
[28] = second compound 3.16 µM, first compound 1 µM
[29] = second compound 3.16 µM, first compound 3.16 µM
[30] = second compound 3.16 µM, first compound 10 µM
[31] = second compound 10 µM, first compound 0.0316 µM
[32] = second compound 10 µM, first compound 0.1 µM
[33] = second compound 10 µM, first compound 0.316 µM
[34] = second compound 10 µM, first compound 1 µM
[35] = second compound 10 µM, first compound 3.16 µM
[36] = second compound 10 µM, first compound 10 µM
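Note: spheroids exposed to compounds for one week.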
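Throughout, for viability, T/C: 100% = vehicle DMSO treated spheroids.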

**Q.** Which IC50 (second compound 0.0316 µM) does the source give for `CC1COCCN1c1cc(C2(O)CC3CCC(C2)O3)c2cnn(-c3ccn[nH]3)c2n1` (centres undefined) + Cc1cccc(N(C)C(=O)C2C(O)CCN2c2nc(C)cc(C(F)(F)F)c2C#N)c1 here?
**A.** 96.2 nM

**Q.** What about the IC50 (second compound 0.1 µM) of the same compound?
**A.** 122 nM

**Q.** And the IC50 (second compound 0.316 µM)?
**A.** 95.7 nM

**Q.** And the IC50 (second compound 1 µM)?
**A.** 99.1 nM

**Q.** And the IC50 (second compound 3.16 µM)?
**A.** 83.2 nM

**Q.** And the IC50 (second compound 10 µM)?
**A.** 80.3 nM

**Q.** What about the viability, T/C [1] of the same compound?
**A.** 76.5%

**Q.** What about the viability, T/C [2] of the same compound?
**A.** 49%

**Q.** What about the viability, T/C [3] of the same compound?
**A.** 26.5%

**Q.** What about the viability, T/C [4] of the same compound?
**A.** 19%

**Q.** What about the viability, T/C [5] of the same compound?
**A.** 17.3%

**Q.** What about the viability, T/C [6] of the same compound?
**A.** 17.8%

**Q.** What about the viability, T/C [7] of the same compound?
**A.** 87.8%

**Q.** And the viability, T/C [8]?
**A.** 54.8%

**Q.** What about the viability, T/C [9] of the same compound?
**A.** 27.2%

**Q.** What about the viability, T/C [10] of the same compound?
**A.** 22.5%

**Q.** And the viability, T/C [11]?
**A.** 22.2%

**Q.** And the viability, T/C [12]?
**A.** 16.9%

**Q.** And the viability, T/C [13]?
**A.** 83.6%

**Q.** And the viability, T/C [14]?
**A.** 48.9%

**Q.** And the viability, T/C [15]?
**A.** 28.1%

**Q.** What about the viability, T/C [16] of the same compound?
**A.** 21%

**Q.** And the viability, T/C [17]?
**A.** 18.3%

**Q.** And the viability, T/C [18]?
**A.** 15.2%

**Q.** What about the viability, T/C [19] of the same compound?
**A.** 94.2%

**Q.** And the viability, T/C [20]?
**A.** 49.6%

**Q.** What about the viability, T/C [21] of the same compound?
**A.** 26.1%

**Q.** And the viability, T/C [22]?
**A.** 18%

**Q.** And the viability, T/C [23]?
**A.** 17.4%

**Q.** What about the viability, T/C [24] of the same compound?
**A.** 16.4%

**Q.** And the viability, T/C [25]?
**A.** 85.5%

**Q.** And the viability, T/C [26]?
**A.** 43.4%

**Q.** What about the viability, T/C [27] of the same compound?
**A.** 25.1%

**Q.** What about the viability, T/C [28] of the same compound?
**A.** 18.4%

**Q.** What about the viability, T/C [29] of the same compound?
**A.** 28.6%

**Q.** What about the viability, T/C [30] of the same compound?
**A.** 14%

**Q.** What about the viability, T/C [31] of the same compound?
**A.** 85.6%

**Q.** And the viability, T/C [32]?
**A.** 41.3%

**Q.** And the viability, T/C [33]?
**A.** 24.2%

**Q.** And the viability, T/C [34]?
**A.** 21.8%

**Q.** And the viability, T/C [35]?
**A.** 16.9%

**Q.** What about the viability, T/C [36] of the same compound?
**A.** 15.7%

**Q.** With `COc1cc2cc(C(=O)CCC(=O)O)sc2cc1OC` + Cc1cccc(N(C)C(=O)C2C(O)CCN2c2nc(C)cc(C(F)(F)F)c2C#N)c1 as the compound, how does the IC50 (second compound 0.0316 µM) read?
**A.** > 10000 nM

**Q.** And the IC50 (second compound 0.1 µM)?
**A.** > 10000 nM

**Q.** And the IC50 (second compound 0.316 µM)?
**A.** > 10000 nM

**Q.** What about the IC50 (second compound 1 µM) of the same compound?
**A.** > 10000 nM

**Q.** And the IC50 (second compound 3.16 µM)?
**A.** > 10000 nM

**Q.** And the IC50 (second compound 10 µM)?
**A.** > 10000 nM

**Q.** And the viability, T/C [1]?
**A.** 104%

**Q.** What about the viability, T/C [2] of the same compound?
**A.** 87.6%

**Q.** What about the viability, T/C [3] of the same compound?
**A.** 97.2%

**Q.** What about the viability, T/C [4] of the same compound?
**A.** 101%

**Q.** And the viability, T/C [5]?
**A.** 110%

**Q.** What about the viability, T/C [6] of the same compound?
**A.** 92.4%

**Q.** What about the viability, T/C [7] of the same compound?
**A.** 92.8%

**Q.** What about the viability, T/C [8] of the same compound?
**A.** 87%

**Q.** What about the viability, T/C [9] of the same compound?
**A.** 92%

**Q.** What about the viability, T/C [10] of the same compound?
**A.** 107%

**Q.** What about the viability, T/C [11] of the same compound?
**A.** 103%

**Q.** What about the viability, T/C [12] of the same compound?
**A.** 86%

**Q.** And the viability, T/C [13]?
**A.** 115%

**Q.** What about the viability, T/C [14] of the same compound?
**A.** 94.8%

**Q.** And the viability, T/C [15]?
**A.** 89.6%

**Q.** What about the viability, T/C [16] of the same compound?
**A.** 87.8%

**Q.** And the viability, T/C [17]?
**A.** 101%

**Q.** What about the viability, T/C [18] of the same compound?
**A.** 74.5%

**Q.** What about the viability, T/C [19] of the same compound?
**A.** 86.4%

**Q.** What about the viability, T/C [20] of the same compound?
**A.** 77.4%

**Q.** What about the viability, T/C [21] of the same compound?
**A.** 89.2%

**Q.** And the viability, T/C [22]?
**A.** 99.7%

**Q.** What about the viability, T/C [23] of the same compound?
**A.** 81.3%

**Q.** What about the viability, T/C [24] of the same compound?
**A.** 70.7%

**Q.** What about the viability, T/C [25] of the same compound?
**A.** 96.2%

**Q.** And the viability, T/C [26]?
**A.** 87.1%

**Q.** What about the viability, T/C [27] of the same compound?
**A.** 84.4%

**Q.** What about the viability, T/C [28] of the same compound?
**A.** 102%

**Q.** What about the viability, T/C [29] of the same compound?
**A.** 83.1%

**Q.** And the viability, T/C [30]?
**A.** 82.3%

**Q.** What about the viability, T/C [31] of the same compound?
**A.** 77.1%

**Q.** And the viability, T/C [32]?
**A.** 91.8%

**Q.** What about the viability, T/C [33] of the same compound?
**A.** 77.4%

**Q.** And the viability, T/C [34]?
**A.** 79.4%

**Q.** What about the viability, T/C [35] of the same compound?
**A.** 88.7%

**Q.** What about the viability, T/C [36] of the same compound?
**A.** 85.8%
